Test results published in ChEMBL document CHEMBL1128154, “16,19-cis-murisolin and murisolin a, two novel bioactive mono-tetrahydrofuran annonaceous acetogenins from Asimina triloba seeds” (Bioorg Med Chem Lett, 1995).
≈ marks a conversion by molar mass, not a printed value.

How the values were obtained:
A498 = assay: Cytotoxicity against human kidney carcinoma A-498cell lines; assay type: functional; settings: read-out: ED50 (the source's name)
A549 = assay: Cytotoxicity against human lung carcinoma A-549 cell lines; assay type: functional; settings: read-out: ED50 (the source's name)
MIA PaCa-2 = assay: Cytotoxicity against human pancreatic carcinoma MIA PaCa-2 cell lines; assay type: functional; settings: read-out: ED50 (the source's name)
MCF7 = assay: Cytotoxicity against human breast carcinoma MCF-7 cell lines; assay type: functional; settings: read-out: ED50 (the source's name)
[1] = Lethality in Brine shrimp lethality test; settings: artemia
PC-3 = assay: Cytotoxicity against human prostate adenocarcinoma PC-3 cell lines; assay type: functional; settings: read-out: ED50 (the source's name)
HT-29 = assay: Cytotoxicity against human colon adenocarcinoma HT-29 cell lines; assay type: functional; settings: read-out: ED50 (the source's name)

SMILES	EC50 (A498) [ng/mL]	EC50 (A549) [ng/mL]	EC50 (MIA PaCa-2) [ng/mL]	EC50 (MCF7) [ng/mL]	LC50 [1] [ng/mL]	EC50 (PC-3) [ng/mL]	EC50 (HT-29) [ng/mL]
CCCCCCCCCCCCC(O)[C@H]1CC[C@H]([C@H](O)CCCCCCCCCCC(O)CC2=C[C@H](C)OC2=O)O1 (single isomer, unassigned)	66.7 (≈ 115 nM)	0.00316 (≈ 0.00544 nM)	51.8 (≈ 89.2 nM)	5400 (≈ 9300 nM)	183 (≈ 315 nM)	8410 (≈ 14500 nM)	–
CCCCCCCCCCCCC(O)[C@@H]1CC[C@H]([C@H](O)CCCCCCCCCCC(O)CC2=C[C@H](C)OC2=O)O1 (single isomer, unassigned)	–	–	1.5 (≈ 2.58 nM)	3150 (≈ 5420 nM)	207 (≈ 356 nM)	2360 (≈ 4060 nM)	–
CCCCCCCCCCCCC(O)C1CC[C@H]([C@H](O)CCCCCCCCCCC(O)CC2=C[C@H](C)OC2=O)O1 (single isomer, unassigned)	4160 (≈ 7160 nM)	3.41 (≈ 5.87 nM)	15.3 (≈ 26.3 nM)	15.8 (≈ 27.2 nM)	346 (≈ 596 nM)	1420 (≈ 2440 nM)	1270 (≈ 2190 nM)
COc1cccc2c1C(=O)c1c(O)c3c(c(O)c1C2=O)C[C@@](O)(C(=O)CO)C[C@@H]3O[C@H]1C[C@H](N)[C@H](O)[C@H](C)O1 [DOXORUBICIN]	2.26 (≈ 4.16 nM)	3.99 (≈ 7.34 nM)	1.36 (≈ 2.5 nM)	420 (≈ 773 nM)	–	34.9 (≈ 64.2 nM)	24.3 (≈ 44.7 nM)
